Results from ChEMBL document CHEMBL1146118, “Design, synthesis and biological evaluations of novel oxindoles as HIV-1 non-nucleoside reverse transcriptase inhibitors. Part I” (Bioorg Med Chem Lett, 2006).

What was measured:
[1] = test system: Human immunodeficiency virus 1; test: Antiviral activity against HIV1 in HEK293T cells; type: functional, organism-based; conditions: Human immunodeficiency virus 1, HEK-293T
HEK293 = test: Cytotoxicity against HEK293T cells; type: functional; conditions: Homo sapiens

Compound | EC50 [1] [µM] | CC50 (HEK293) [µM]
CON(C)C(=O)[C@H]1C[C@]12C(=O)Nc1ccc(Br)cc12 | 0.656 | > 10
CCCCC(=O)[C@H]1C[C@]12C(=O)Nc1ccc(Br)cc12 | 0.62 | > 10
CCOC(=O)[C@H]1C[C@]12C(=O)Nc1ccc(-c3ccccc3)cc12 | 0.126 | > 10
CCCCC1CC12C(=O)Nc1ccc(Br)cc12 (stereo not given) | 0.197 | > 10
COC(=O)CC1CC12C(=O)Nc1ccc(Br)cc12 (stereo not given) | > 10 | > 10
CCOC(=O)[C@H]1[C@@H](CC)[C@]12C(=O)Nc1ccc(Br)cc12 | 1.21 | > 10
CCOC(=O)[C@H]1C[C@]12C(=O)Nc1ccc(Cl)cc12 | 0.059 | > 10
O=C([C@H]1C[C@]12C(=O)Nc1ccc(Br)cc12)N1CCCC1 | 0.191 | > 10
CCOC(=O)[C@H]1C2(CCCC2)[C@]12C(=O)Nc1ccc(Br)cc12 | 1.46 | > 10
CCCNC(=O)[C@H]1C[C@]12C(=O)Nc1ccc(Br)cc12 | > 10 | > 10
CCOC(=O)[C@H]1C[C@]12C(=O)Nc1ccc([N+](=O)[O-])cc12 | 1.03 | > 10
CCOC(=O)[C@H]1C[C@]12C(=O)Nc1ccccc12 | 0.279 | > 10
CCOC(=O)[C@H]1C[C@]12C(=O)Nc1ccc(C#N)cc12 | 0.066 | > 10
CCOC(=O)[C@H]1C[C@]12C(=O)Nc1ccc(-c3cccn3C)cc12 | 0.358 | 8.06
CC(C)OC(=O)[C@H]1C[C@]12C(=O)Nc1ccc(Br)cc12 | 0.059 | > 10
CCOC(=O)[C@H]1C[C@]12C(=O)Nc1ccc(F)cc12 | 0.289 | > 10
CCOC(=O)[C@H]1C[C@]12C(=O)Nc1ccc(Br)cc12 | 0.066 | > 10
CCCCCC#CC1CC12C(=O)Nc1ccc(Br)cc12 (stereo not given) | 0.463 | 6.62
CCOC(=O)/C=C1/C(=O)Nc2ccc(Br)cc21 | 2.28 | > 10
CCOC(=O)[C@H]1C(C)(C)[C@]12C(=O)Nc1ccc(Br)cc12 | 0.015 | > 10
CCOC(=O)[C@H]1C[C@]12C(=O)Nc1cc(Cl)ccc12 | > 10 | > 10
CCOC(=O)[C@@H]1C[C@]12C(=O)Nc1ccc(Br)cc12 | > 10 | > 10
O=C1Nc2ccc(Br)cc2C12CC2COc1ccccc1 (stereo not given) | 5.62 | > 10
CC(C)(C)OC(=O)[C@H]1C[C@]12C(=O)Nc1ccc(Br)cc12 | 0.04 | > 10

Compound | EC50 [1] [µM] | CC50 (HEK293) [µM]
CCOC(=O)[C@H]1C[C@]12C(S)=Nc1ccc(Br)cc12 | > 10 | > 10
CCOC(=O)[C@H]1C[C@]12C(=O)Nc1ccc(N)cc12 | 2.7 | 1.99
O=C(OCc1ccccc1)[C@H]1C[C@]12C(=O)Nc1ccc(Br)cc12 | 5.58 | > 10
CCOC(=O)[C@H]1C[C@]12C(=O)Nc1c(C)cc(Cl)cc12 | 2.25 | > 10
O=C(O)[C@H]1C[C@]12C(=O)Nc1ccc(Br)cc12 | 7.63 | > 10
CCOC(=O)[C@H]1C[C@]12C(=O)Nc1ccc(OC(F)(F)F)cc12 | 2.23 | > 10
CCOC(=O)[C@H]1C(CC)(CC)[C@]12C(=O)Nc1ccc(Br)cc12 | > 10 | > 10
O=C([C@H]1C[C@]12C(=O)Nc1ccc(Br)cc12)N1CCSC1 | 0.18 | > 10
CCOC(=O)[C@H]1C[C@]12C(=O)Nc1c(Cl)cc(Cl)cc12 | 7.36 | > 10
CCOC(=O)CC1(C)C(=O)Nc2ccc(Br)cc21 (stereo not given) | > 10 | > 10
CCOC(=O)[C@H]1C[C@]12C(=O)Nc1ccc(I)cc12 | 0.486 | > 10
CCOC(=O)[C@H]1C[C@]12C(=O)N(C)c1ccc(Br)cc12 | > 10 | > 10
CCOC(=O)[C@@]1(C)C[C@]12C(=O)Nc1ccc(Br)cc12 | 33.3 | > 10
C=Cc1ccc2c(c1)[C@@]1(C[C@@H]1C(=O)OCC)C(=O)N2 | > 10 | > 10
CCOC(=O)[C@H]1C[C@]12C(=O)Nc1ccc(-c3cccs3)cc12 | 2.65 | 1.94
CCOC(=O)[C@H]1C[C@]12C(=O)Nc1ccc(C)cc12 | 1.09 | > 10
O=C([C@H]1C[C@]12C(=O)Nc1ccc(Br)cc12)N1CCCCC1 | 0.586 | > 10
CCN(CC)C(=O)[C@H]1C[C@]12C(=O)Nc1ccc(Br)cc12 | 1.42 | > 10
CCOC(=O)/C=C1\C(=O)Nc2ccc(Br)cc21 | > 10 | > 10
CCOC(=O)[C@H]1C[C@]12C(=O)Nc1ccc(-c3ccco3)cc12 | 0.608 | 2.19
CCOC(=O)[C@H]1[C@H](CC)[C@]12C(=O)Nc1ccc(Br)cc12 | 0.03 | > 10
CCOC(=O)[C@H]1C[C@]12C(=O)Nc1cccc(Br)c12 | > 10 | > 10
O=C1Nc2ccc(Cl)cc2[C@@](C#CC2CC2)(C(F)(F)F)O1 [EFAVIRENZ] | – | 10
Cc1ccnc2c1NC(=O)c1cccnc1N2C1CC1 [NEVIRAPINE] | 0.05 | > 10
